Test results as given in PubChem BioAssay AID244 (DTP/NCI, 2004).
Several values for one entry are separate records, joined by “and”; a condition that tells them apart may be missing. Equal values may be shown once. Inconclusive results are not listed. *1 amine or outer side, *2 acyl side, *3 side chain or, on linkers, in order; H or OH if unused. Where a SMILES comes first, the peptide text is derived from it. Bridges are numbered along the chain shown (N, C = ends). Roman numbers before positions name the chains, in order. [ ]: non-standard residue; d: D form. Actinocin(9to1) = Cc1c2oc3c(C)ccc(C(=O)[*:1])c3nc-2c(C(=O)[*:2])c(N)c1=O; aThr = C[C@H](O)[C@H](N)C(=O)O; NMeV = CN[C@H](C(=O)O)C(C)C; Sar = CNCC(=O)O

Tested on: CD2F1 mice, Lymphoma 8 ip, survival T/C
Assay: NCI In Vivo Anticancer Drug Screen. Data for tumor model Lymphoma 8 (intraperitoneal) in CD2F1 (CDF1) mice
Conditions: higher = longer survival
Description: The antitumor activity of compounds was measured in mice bearing transplantable tumors. Survival or tumor size were measured and the results are expressed as the measurement made in the treated group (T) divided by the measurement made in the vehicle treated control group (C). The tumor model used in this assay is Lymphoma 8 (intraperitoneal) in CD2F1 (CDF1) mice

[1] = endpoint: median survival time, dose: 100.0 mg/kg/injection, schedule: Q01DX005 (ip), vehicle: water
[2] = endpoint: median survival time, dose: 200.0 mg/kg/injection, schedule: Q01DX005 (ip), vehicle: water
[3] = endpoint: median survival time, dose: 400.0 mg/kg/injection, schedule: Q01DX005 (ip), vehicle: water
[4] = endpoint: median survival time, dose: 800.0 mg/kg/injection, schedule: Q01DX005 (ip), vehicle: water
[5] = endpoint: median survival time, dose: 50.0 mg/kg/injection, schedule: Q01DX009 (ip), vehicle: saline
[6] = endpoint: median survival time, dose: 100.0 mg/kg/injection, schedule: Q01DX009 (ip), vehicle: saline
[7] = endpoint: median survival time, dose: 200.0 mg/kg/injection, schedule: Q01DX009 (ip), vehicle: saline
[8] = endpoint: median survival time, dose: 400.0 mg/kg/injection, schedule: Q01DX009 (ip), vehicle: saline

NC(CC(=O)O)C(=O)O (stereo unspecified)
T/C [1]: 95 % of control and 100 % of control | T/C [2]: 100 % of control | T/C [3]: 100 % of control | T/C [4]: 91 % of control

NCC(=O)O
T/C (endpoint: median survival time, dose: 187.5 mg/kg/injection, schedule: Q04HX003 (ip), vehicle: saline): 86 % of control | T/C (endpoint: median survival time, dose: 375.0 mg/kg/injection, schedule: Q04HX003 (ip), vehicle: saline): 86 % of control | T/C (endpoint: median survival time, dose: 750.0 mg/kg/injection, schedule: Q04HX003 (ip), vehicle: saline): 81 % of control | T/C (endpoint: median survival time, dose: 1500.0 mg/kg/injection, schedule: Q04HX003 (ip), vehicle: saline): 75 % of control

NC(=O)C(N)CCO (stereo unspecified)
T/C [5]: 100 % of control and 102 % of control and 94 % of control | T/C [6]: 97 % of control [middle of 4 runs] | T/C (endpoint: median survival time, dose: 100.0 mg/kg/injection, schedule: Q01DX010 (ip), vehicle: saline): 87 % of control and 88 % of control | T/C [7]: 98 % of control [middle of 4 runs] | T/C (endpoint: median survival time, dose: 200.0 mg/kg/injection, schedule: Q01DX010 (ip), vehicle: saline): 91 % of control [middle of 4 runs] | T/C [8]: 100 % of control [middle of 4 runs] | T/C (endpoint: median survival time, dose: 400.0 mg/kg/injection, schedule: Q01DX010 (ip), vehicle: saline): 95 % of control [middle of 4 runs]

CNC(=O)CC(N)C(=O)O (stereo unspecified)
T/C (endpoint: median survival time, dose: 75.0 mg/kg/injection, schedule: Q01DX005 (ip), vehicle: saline): 96 % of control and 102 % of control | T/C (endpoint: median survival time, dose: 150.0 mg/kg/injection, schedule: Q01DX005 (ip), vehicle: saline): 107 % of control and 113 % of control | T/C (endpoint: median survival time, dose: 300.0 mg/kg/injection, schedule: Q01DX005 (ip), vehicle: saline): 93 % of control and 113 % of control | T/C (endpoint: median survival time, dose: 600.0 mg/kg/injection, schedule: Q01DX005 (ip), vehicle: saline): 95 % of control and 114 % of control | T/C (endpoint: median survival time, dose: 1200.0 mg/kg/injection, schedule: Q01DX005 (ip), vehicle: saline): 102 % of control

COc1cc2c(c3c1c(=O)c1ccccc1n3C)C=CC(C)(C)O2
T/C (endpoint: median survival time, dose: 12.5 mg/kg/injection, schedule: Q01DX009 (ip), vehicle: Klucel (hydroxypropylcellulose) (HPC)): 100 % of control | T/C (endpoint: median survival time, dose: 25.0 mg/kg/injection, schedule: Q01DX009 (ip), vehicle: Klucel (hydroxypropylcellulose) (HPC)): 100 % of control | T/C (endpoint: median survival time, dose: 50.0 mg/kg/injection, schedule: Q01DX009 (ip), vehicle: Klucel (hydroxypropylcellulose) (HPC)): 107 % of control | T/C (endpoint: median survival time, dose: 100.0 mg/kg/injection, schedule: Q01DX009 (ip), vehicle: Klucel (hydroxypropylcellulose) (HPC)): 96 % of control

C[C@H]1C(=O)O[C@@H]2CCN3CC=C(COC(=O)[C@](C)(O)[C@@]1(C)O)[C@H]23
T/C (endpoint: survival time, mean or median, dose: 3.13 mg/kg/injection, schedule: Q01DX010 (ip), vehicle: saline): 100 % of control | T/C (endpoint: survival time, mean or median, dose: 6.25 mg/kg/injection, schedule: Q01DX010 (ip), vehicle: saline): 100 % of control | T/C (endpoint: survival time, mean or median, dose: 12.5 mg/kg/injection, schedule: Q01DX010 (ip), vehicle: saline): 100 % of control | T/C (endpoint: survival time, mean or median, dose: 25.0 mg/kg/injection, schedule: Q01DX010 (ip), vehicle: saline): 100 % of control

N=[N+]=CC(=O)CCC(NC(=O)C(CCC(=O)C=[N+]=N)NC(=O)CCC(N)C(=O)O)C(=O)O (stereo unspecified)
T/C (endpoint: median survival time, dose: 0.31 mg/kg/injection, schedule: Q04DX002 (ip), vehicle: saline): 111 % of control | T/C (endpoint: median survival time, dose: 0.63 mg/kg/injection, schedule: Q04DX002 (ip), vehicle: saline): 107 % of control | T/C (endpoint: median survival time, dose: 1.25 mg/kg/injection, schedule: Q04DX002 (ip), vehicle: saline): 115 % of control | T/C (endpoint: median survival time, dose: 2.5 mg/kg/injection, schedule: Q01DX006 (ip), vehicle: saline): 121 % of control | T/C (endpoint: median survival time, dose: 10.0 mg/kg/injection, schedule: Q01DX006 (ip), vehicle: saline): 121 % of control | T/C (endpoint: median survival time, dose: 10.0 mg/kg/injection, schedule: Q04DX002 (ip), vehicle: saline): 169 % of control | T/C (endpoint: median survival time, dose: 20.0 mg/kg/injection, schedule: Q01DX001 (ip), vehicle: saline): 107 % of control | T/C (endpoint: median survival time, dose: 20.0 mg/kg/injection, schedule: Q04DX002 (ip), vehicle: saline): 153 % of control | T/C (endpoint: median survival time, dose: 40.0 mg/kg/injection, schedule: Q04DX002 (ip), vehicle: saline): 180 % of control | T/C (endpoint: median survival time, dose: 40.0 mg/kg/injection, schedule: Q04DX003 (ip), vehicle: saline): 169 % of control | T/C (endpoint: median survival time, dose: 60.0 mg/kg/injection, schedule: Q01DX001 (ip), vehicle: saline): 107 % of control | T/C (endpoint: median survival time, dose: 60.0 mg/kg/injection, schedule: Q04DX002 (ip), vehicle: saline): 180 % of control | T/C (endpoint: median survival time, dose: 60.0 mg/kg/injection, schedule: Q04DX003 (ip), vehicle: saline): 176 % of control | T/C (endpoint: median survival time, dose: 80.0 mg/kg/injection, schedule: Q01DX006 (ip), vehicle: saline): 171 % of control | T/C (endpoint: median survival time, dose: 80.0 mg/kg/injection, schedule: Q04DX003 (ip), vehicle: saline): 188 % of control

COc1cccc2c1C(=O)c1c(O)c3c(c(O)c1C2=O)C[C@@](O)(C(C)=O)C[C@@H]3OC1CC(N)C(O)C(C)O1 (stereo partly specified)
T/C (endpoint: median survival time, dose: 1.25 mg/kg/injection, schedule: Q01DX005 (ip), vehicle: saline): 96 % of control and 101 % of control | T/C (endpoint: median survival time, dose: 2.5 mg/kg/injection, schedule: Q01DX005 (ip), vehicle: saline): 100 % of control and 105 % of control | T/C (endpoint: median survival time, dose: 5.0 mg/kg/injection, schedule: Q01DX005 (ip), vehicle: saline): 123 % of control | T/C (endpoint: median survival time, dose: 10.0 mg/kg/injection, schedule: Q01DX005 (ip), vehicle: saline): 82 % of control

NC(C(=O)O)C(F)(F)C(=O)O (stereo unspecified)
T/C (endpoint: median survival time, dose: 3.12 mg/kg/injection, schedule: Q01DX009 (ip), vehicle: saline): 93 % of control | T/C (endpoint: median survival time, dose: 6.25 mg/kg/injection, schedule: Q01DX009 (ip), vehicle: saline): 97 % of control | T/C (endpoint: median survival time, dose: 12.5 mg/kg/injection, schedule: Q01DX009 (ip), vehicle: saline): 87 % of control and 89 % of control | T/C (endpoint: median survival time, dose: 25.0 mg/kg/injection, schedule: Q01DX009 (ip), vehicle: saline): 100 % of control | T/C [5]: 107 % of control

NC(=O)CC(N)C(=O)O (stereo unspecified)
T/C [1]: 91 % of control | T/C [2]: 100 % of control | T/C [3]: 100 % of control | T/C [4]: 91 % of control

Cc1c2oc3c(C)ccc(C(=O)N[C@@H]4C(=O)N[C@H](C(C)C)C(=O)N5CCC[C@H]5C(=O)N(C)CC(=O)N(C)[C@@H](C(C)C)C(=O)O[C@H]4C)c3nc-2c(C(=O)N[C@@H]2C(=O)N[C@H](C(C)C)C(=O)N3CCC[C@H]3C(=O)N(C)CC(=O)N(C)[C@@H](C(C)C)C(=O)O[C@H]2C)c(N)c1=O (I: [aThr][dV]P[Sar][NMeV] / II: [aThr][dV]P[Sar][NMeV]; ester I:1-I:C, II:1-II:C; linker I:N-II:N via Actinocin(9to1))
T/C (endpoint: median survival time, dose: 0.05 mg/kg/injection, schedule: Q01DX002 (ip), vehicle: saline): 103 % of control | T/C (endpoint: median survival time, dose: 0.05 mg/kg/injection, schedule: Q04DX002 (ip), vehicle: saline): 100 % of control | T/C (endpoint: median survival time, dose: 0.1 mg/kg/injection, schedule: Q04DX002 (ip), vehicle: saline): 92 % of control | T/C (endpoint: median survival time, dose: 0.2 mg/kg/injection, schedule: Q01DX002 (ip), vehicle: saline): 106 % of control | T/C (endpoint: median survival time, dose: 0.2 mg/kg/injection, schedule: Q04DX002 (ip), vehicle: saline): 100 % of control

CC(=O)NC(CCC(=O)C=[N+]=N)C(=O)O (stereo unspecified)
T/C (endpoint: median survival time, dose: 0.5 mg/kg/injection, schedule: Q01DX002 (ip), vehicle: saline): 100 % of control | T/C (endpoint: median survival time, dose: 0.5 mg/kg/injection, schedule: Q04DX002 (ip), vehicle: saline): 96 % of control | T/C (endpoint: median survival time, dose: 1.0 mg/kg/injection, schedule: Q01DX002 (ip), vehicle: saline): 103 % of control | T/C (endpoint: median survival time, dose: 1.0 mg/kg/injection, schedule: Q04DX002 (ip), vehicle: saline): 114 % of control | T/C (endpoint: median survival time, dose: 2.0 mg/kg/injection, schedule: Q01DX002 (ip), vehicle: saline): 106 % of control | T/C (endpoint: median survival time, dose: 2.0 mg/kg/injection, schedule: Q04DX002 (ip), vehicle: saline): 107 % of control

Nc1ncnc2[nH]ncc12
T/C (endpoint: survival time, mean or median, dose: 1.5 mg/kg/injection, schedule: Q01DX010 (ip), vehicle: saline): 90 % of control and 95 % of control | T/C (endpoint: survival time, mean or median, dose: 3.0 mg/kg/injection, schedule: Q01DX010 (ip), vehicle: saline): 100 % of control | T/C (endpoint: survival time, mean or median, dose: 6.0 mg/kg/injection, schedule: Q01DX010 (ip), vehicle: saline): 90 % of control and 95 % of control | T/C (endpoint: survival time, mean or median, dose: 12.0 mg/kg/injection, schedule: Q01DX010 (ip), vehicle: saline): 90 % of control

CC(=O)Nc1c(Cl)cc2c(c1Cl)Cc1cc([N+](=O)[O-])ccc1-2
T/C (endpoint: survival time, mean or median, dose: 3.9 mg/kg/injection, schedule: Q01DX010 (ip), vehicle: saline): 87 % of control

NC(=O)CC(N)CO (stereo unspecified)
T/C [5]: 87 % of control and 100 % of control | T/C [6]: 91 % of control and 100 % of control | T/C [7]: 97 % of control and 98 % of control | T/C [8]: 91 % of control and 102 % of control
